According to US10844411B2, “Inhibitors of sterol metabolism for their use to accumulate triglycerides in microalgae, and methods thereof” (Commissariat A L'energie Atomique Et Aux Energies …, priority 2014, dated 2020):

Test system: Nannochloropsis gaditana
Experiment: Nile Red staining of oil accumulation in Nannochloropsis gaditana incubated with inhibitors of sterol metabolism
Assay type: cell-based
Settings: ESAW 1N1P and ESAW 10N10P media; time course at least 7 days; FIGS. 5 and 6
Protocol: Experiments were performed in two different conditions of Nannochloropsis gaditana: cells were either cultured in ESAW containing 47 mg·L^−1 NaNO3 and 3 mg·L^−1 NaH2PO4 (medium 1N1P), or 470 mg/L NaNO3 and 30 mg·L^−1NaH2PO4) (medium 10N10P). Cells in an exponential growth phase were collected via centrifugation at 3500 rpm for 10 minutes. The supernatant was discarded and the cells were resuspended in the same volume of ESAW medium (either 1N1P or 10N10P). The cultures were centrifuged again at 3500 rpm, for 10 minutes, and the supernatant was discarded. The pellet was resuspended in ESAW (either 1N1P or 10N10P) to obtain a concentration of 2×10^6 cells/mL. […]
Each day, an aliquot was taken from each flask in order to perform a Nile Red stain and cell counts. […] In order to detect any background noise, fluorescence was measured at excitation and emission of 530 nm and 580 nm, respectively. […] After 20 minutes of incubation, Nile Red fluorescence was measured at excitation and emission of 530 nm and 580 nm, respectively.
Nile Red Fluorescence was normalized by calculating the relative fluorescence units per million cells. Results were expressed as a percentage of Nile Red fluorescence of Nannochloropsis gaditana cultured in complete medium (either ESAW (10N10P) or ESAW (1N1P)).

## CN(Cc1ccc(C(C)(C)C)cc1)Cc1cccc2ccccc12 [Butenafine]
  accumulation of oil (Nile Red fluorescence per million cells): trigger the accumulation of oil

## C#C[C@]1(O)CC[C@H]2[C@@H]3CCc4cc(O)ccc4[C@H]3CC[C@@]21C [Ethinylestradiol]
  accumulation of oil (Nile Red fluorescence per million cells): trigger the accumulation of oil
